These results are taken from PubChem BioAssay (NCI).

Where “and” joins values, the source holds several entries; their conditions need not be identical. Equal entries are not always repeated.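 Results reflect a 48-hour exposure of cells in 96-well plates to compound at five concentrations. GI50: concentration for 50% inhibition of growth. At the TGI there is no net growth.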

Common to all, as to assay: growth of human tumour cells (NCI), 48 h
Test [1] concerns A498 renal.
Test [2] concerns HCT-116 colon.
Test [3] relates to HL-60(TB) leukemia.
The test system of test [4] is K-562 leukemia.
Test [5] relates to M14 melanoma.
The subject of test [6] is MDA-MB-435.
Test [7] has as its system MOLT-4 leukemia.
The test system of test [8] is NCI-H226 lung.
Test [9] relates to SK-MEL-28 melanoma.
The test system of test [10] is SW-620 colon.

On to `CC[C@@]12C=CCN3CC[C@]4(c5cc(NC(=O)COc6cc(OCC(=O)Nc7cc8c(cc7OC)N(C)[C@H]7[C@@](O)(C(=O)OC)[C@H](OC(C)=O)[C@]9(CC)C=CCN%10CC[C@]87[C@@H]%109)cc7oc(-c8ccccc8)cc(=O)c67)c(OC)cc5N(C)[C@@H]4[C@](O)(C(=O)OC)[C@H]1OC(C)=O)[C@H]32`, for which the GI50 was 7.6 µM in test [1]; 1.79 µM in test [2]; 20.4 µM in test [3]; 3.86 µM in [4]; 6.06 µM in [5]; 17.7 µM in [6]. Besides, the GI50 in test [7] was 2.79 µM; in test [8], 4.34 µM; in [9] it was above 100 µM; in [10], 3.89 µM. Moreover, the TGI in test [1] was 22.3 µM; in [2], 6.14 µM; in test [3], above 100 µM; in [4], above 100 µM; in test [5] it was 28.7 µM; in test [6], above 100 µM. The TGI was above 100 µM in test [7], 18 µM in [8], above 100 µM in test [9] and 26.2 µM in [10].

In the case of `COc1ccc(NC(=O)n2nc(/C=C\c3ccc(O)c(OC)c3)cc2/C=C\c2ccc(O)c(OC)c2)cc1`, the GI50 in test [1] is 17.2 µM; in test [2], 3.22 µM; in test [3] it was 2.55 µM; in test [4], 2.86 µM; in test [5], 3.15 µM; in test [6], 1.25 µM. For the same molecule, the GI50 in test [7] was 2.87 µM; in [8], 10.7 µM; in test [9], 3.52 µM; in [10], 5.51 µM. The TGI in test [1] was determined as 56.4 µM; in test [2] it was 42.9 µM; in test [3], 6.69 µM; in test [4], 16.9 µM; in test [5] it was 41.5 µM; in test [6], 4.68 µM. The TGI turned out to be 13.3 µM in [7], 78.6 µM in test [8], 92.7 µM in [9] and 61.6 µM in test [10].

For the molecule `CCCCCCCCCCCCCCCCCCNC(=O)OCC(CNS(=O)(=O)CCC[n+]1cccc2ccccc21)COC` (centres undefined), the TGI in [1] was 64.9 µM; in test [2] it was 5.78 µM; in test [3], above 100 µM; in test [4] it was above 100 µM; in test [5] it was 25.9 µM; in test [6], 4.94 µM. Also, the TGI in test [7] was above 100 µM; in [8], 3.84 µM; in test [9], above 35.1 µM; in test [10] it was 11.8 µM.

In the case of `Nc1nc(N)nc(CC(=O)O)n1`, the TGI in test [1], in test [2], in test [3], in [4], in [5] and in test [6] was above 100 µM in each case. For the same molecule, the TGI in test [7], in [8], in [9] and in [10] was above 100 µM each time.

Take `[N-]=[N+]=CC(=O)COC(=O)c1ccccc1`: the TGI in [1], in test [2], in test [3], in test [4], in test [5] and in test [6] was above 100 µM throughout. Besides, the TGI in [7], in test [8], in test [9] and in test [10] was above 100 µM in each case.

Regarding `CSc1nsc(S/C=C\C(=O)c2ccc(C)cc2)n1`, the GI50 was 0.0153 µM in test [1]; 13 µM in test [2]; 11.6 µM in test [3]; 6.37 µM in test [4]; 15.5 µM in test [5]; 19.2 µM in [6]. Also, the GI50 in test [7] was 1.61 µM; in [8], 20.7 µM; in [9], 13.4 µM; in test [10], 1.3 µM. For the same molecule, the TGI in test [1] was 0.169 µM; in test [2] it was 25.7 µM; in test [3] it was above 68.9 µM; in [4], above 100 µM; in test [5] it was 30.8 µM; in test [6], 45.6 µM. Moreover, the TGI in test [7] is above 51.5 µM; in test [8], 55.5 µM; in [9], above 45.1 µM; in [10], 17.8 µM.

As for `Oc1c(Cl)cc(Cl)cc1Sc1cc(Cl)cc(Cl)c1O`, the GI50 in test [1] is 1.81 µM and 1.87 µM; in test [2], 2.87 µM and 2.44 µM; in test [3], 2.88 µM and 2.72 µM; in [4], 3.17 µM and 2.91 µM; in [5], 3.88 µM and 4.02 µM; in [6], 3.42 µM and 2.72 µM. In addition, the GI50 in test [7] was 3.8 µM and 2.55 µM; in test [8] it was 3.1 µM and 2.26 µM; in test [9] it was 7.01 µM and 4 µM; in [10], 3.32 µM and 3.06 µM. The TGI was 5.52 µM and 5.19 µM in [1]; 9 µM and 6.51 µM in [2]; 6.5 µM and 7.5 µM in test [3]; 12 µM and 23.5 µM in [4]; 15.3 µM and 14.5 µM in [5]; 12.4 µM and 9 µM in [6]. The TGI was 11.7 µM and 13.1 µM in test [7]; 15 µM and 6.76 µM in test [8]; 21 µM and 14.5 µM in test [9]; 13.2 µM and 12.5 µM in test [10].

Regarding `NNS(=O)(=O)c1cc(C(=O)O)cc(C(=O)O)c1`, the TGI in [1], in test [2], in [3], in test [4], in test [5] and in test [6] was above 100 µM throughout. In addition, the TGI in test [7], in [8], in [9] and in test [10] was above 100 µM throughout.

Take `O=C(Nc1ccc(Br)cc1)Nc1nn(C(=O)Nc2ccc(Br)cc2)c2ccccc12`: the GI50 is 31.4 µM in test [1]; 16.9 µM in test [2]; 12 µM in [3]; 7.64 µM in [4]; above 70.8 µM in test [5]; above 100 µM in [6]. Besides, the GI50 in test [7] was 2.49 µM; in test [8] it was 27.7 µM; in test [9], 96.9 µM; in [10] it was above 38.6 µM. The TGI in [1] was above 81 µM; in test [2], above 100 µM; in test [3] it was above 32.2 µM; in [4] it was above 35.6 µM; in test [5], above 100 µM; in test [6], above 100 µM. Moreover, the TGI in test [8], in [9] and in test [10] was above 100 µM throughout.

Regarding `COC(=O)C(=O)C(C(=O)C(N)=O)c1nc2ccc(C(=O)c3ccccc3)cc2[nH]c1=O` (centres undefined), the TGI in test [1], in test [2], in test [3], in [4], in [5] and in test [6] was above 100 µM throughout. The TGI in test [7], in test [8], in test [9] and in [10] was above 100 µM each time.

For the molecule `Cc1cnc(Nc2ccc(OCCN3CCCC3)cc2)nc1Nc1cccc(S(=O)(=O)NC(C)(C)C)c1`, the GI50 in test [1] was 0.144 µM and 0.385 µM; in [2], 0.345 µM; in test [3], 0.516 µM; in test [4], 0.15 µM and 0.676 µM; in [5] it was 0.19 µM and 0.61 µM; in [6], 0.121 µM and 1.14 µM. Also, the GI50 in [7] is 0.18 µM and 1.14 µM; in test [8] it was 0.146 µM and 0.813 µM; in [9], 3.27 µM and > 7.8 µM; in [10] it was 0.228 µM and 0.946 µM. Besides, the TGI in test [1] is 0.869 µM and 1.57 µM; in [2] it was 4.94 µM and > 6.43 µM; in test [3] it was 0.6 µM and 2.16 µM; in test [4], above 33.6 µM; in [5] it was 3.54 µM and 6.25 µM; in test [6], 11.9 µM and > 10 µM. For the same molecule, the TGI in test [7] was 12.5 µM and > 10 µM; in [8], 1.9 µM and 2.97 µM; in test [9], 17.5 µM and > 10 µM; in test [10], 3.54 µM and > 7.42 µM.

In the case of `CCCCCCNC(=O)Oc1ccc(/C(=C(/C)Cc2ccc(OC)cc2)c2ccc(OCCN(C)C)cc2)cc1`, the GI50 is 5.34 µM in test [1]; 5.52 µM in [2]; 4.82 µM in [3]; 1.1 µM in test [4]; 6.18 µM in test [5]; 4.62 µM in test [6]. Besides, the GI50 was 5.23 µM in test [7], 6.18 µM in [8], 3.88 µM in test [9] and 4.86 µM in test [10]. Also, the TGI was determined as 9.92 µM in [1]; 10.3 µM in test [2]; 10.3 µM in test [3]; 3.63 µM in test [4]; 11.5 µM in test [5]; 9.17 µM in test [6]. In addition, the TGI in test [7] turned out to be 11.5 µM; in test [8] it was 11.9 µM; in test [9], 8.06 µM; in [10], 9.59 µM.

With `CC12CC=CCC1CCC1C2CCC2(C)C(c3ccc(=O)oc3)CCC12O` (centres undefined), the GI50 in test [1] was 0.0768 µM; in [2], 0.0349 µM; in test [3], 0.0272 µM; in test [4], 0.0967 µM; in test [5], 0.113 µM; in [6] it was 0.179 µM. In addition, the GI50 in [7] was 0.0292 µM; in [8], 0.219 µM; in test [9] it was 0.3 µM; in test [10], 0.0539 µM. In addition, the TGI worked out at 0.54 µM in test [1]; 0.143 µM in test [2]; 0.0732 µM in test [3]; 2.27 µM in test [4]; 0.404 µM in test [5]; 0.727 µM in [6]. The TGI came to 0.113 µM in test [7], 0.595 µM in [8], 1.37 µM in test [9] and 0.366 µM in test [10].

As to `CC(=O)Nc1ccc(/C=C2/NC(=S)N(/C=C3\C(=O)Oc4ccccc4C3=O)C2=O)cc1`, the TGI in [1], in test [2], in test [3], in [4], in test [5] and in test [6] was above 100 µM in each case. Besides, the TGI in [7], in [8], in test [9] and in test [10] was above 100 µM throughout.

For the molecule `CC(C)(C)n1cc(-c2ccnc(NCCCNS(=O)(=O)c3ccc(Br)cc3)c2)c(-c2cccc(O)c2)n1`, the GI50 was 1.33 µM in test [1]; 1.31 µM in [2]; 2.72 µM in test [3]; 2.02 µM in [4]; 1.78 µM in test [5]; 1.82 µM in test [6]. Moreover, the GI50 is 2.3 µM in test [7], 2.31 µM in test [8], 1.79 µM in [9] and 1.83 µM in test [10]. Further, the TGI was 3.47 µM in test [1]; 2.6 µM in [2]; 7.49 µM in test [3]; above 100 µM in [4]; 3.29 µM in test [5]; 3.29 µM in test [6]. Further, the TGI amounted to 6.74 µM in test [7], 5.59 µM in test [8], 3.36 µM in [9] and 3.63 µM in test [10].

Regarding `COc1cc2c3c(c1OC)C1(C=CC(=O)C=C1)CC3NCC2` (centres undefined), the TGI in [1], in test [2], in [3], in test [4], in test [5] and in [6] was above 100 µM in each case. In addition, the TGI in test [7], in [8], in [9] and in test [10] was above 100 µM throughout.

Consider `CC(=O)c1cc(-c2ccccc2N)n(-c2ccc3c(c2)OCO3)c1C`, for which the GI50 in test [1] is 0.195 µM; in [2], 0.257 µM; in test [3] it was 0.217 µM; in [4], 0.247 µM; in [5], 0.279 µM; in test [6], 0.163 µM. Further, the GI50 in test [7] is 0.38 µM; in test [8], 0.239 µM; in test [9], 2.34 µM; in test [10], 0.184 µM. For the same molecule, the TGI in [1] was 0.808 µM; in test [2], 15.9 µM; in test [3] it was 0.592 µM; in test [4], above 100 µM; in [5], 75 µM; in test [6] it was 0.434 µM. The TGI in test [7] was above 100 µM; in test [8], 6.86 µM; in test [9] it was above 73.9 µM; in [10] it was above 100 µM.
